Here are results for one compound from US6716596B2, “Agents for replacement of NAD+/NADH system in enzymatic reactions” (The Regents of the University of California, priority 2001, dated 2004).

Where a name gives a salt, the structure may show the parent alone. Where only a bound is given, the exact number is not on record here.

Series [1] in a line: UV-vis kinetics of the regioselective reduction with rhodium catalyst precursor (2) and formate. As to conditions: for kcat rate constant for catalysis / r1 initial rate: [2] 2.725 × 10^−5 M, 299° K. From the text:
The kinetics of the regioselective reduction reactions were further studied utilizing UV-vis techniques with the two biomimic compounds (1) and (6) and the results were compared to NAD^+ itself. Experimental conditions are described in Example 9.
The effect of the initial rate (ri) at low conversions to the 1,4-dihydro product (˜10%) was ascertained by varying the amount of substrate precatalyst (2) and sodium formate concentrations.
The initial rates (ri) of formation of compound (3) were obtained from plots of concentration (absorbance at 354 nm/ε) versus time at low conversions (˜10%). The values of kcat were calculated at 299° K.
Rates were obtained via UV-vis techniques and are an average of two runs.
This example describes studies producing kinetic and thermodynamic data for 1-benzylnicotinamide triflate (1a) performed in THF/H2O, 1:1, β-nicotinamide -5′-ribose methyl phosphate (6) H2O, pH=6.5, and NAD^+ performed in the regioselective reduction with [Cp*Rh(bpy)H2O)][OTf]2, 2 and in the presence of formate ion.
The kinetic experiments were carried out on a Hewlett Packard 8452A Diode Array Uv-Vis spectrophotometer, attached to a circulating water bath (VWR 1160). For experiments conducted at different temperatures, the circulating water bath, as well as the UV-vis instrument, were warmed up for at least an 1 hour before the kinic studies were initiated.
The 1-benzylnicotinamide triflate (1a) [CP*Rh(bpy)(H2O)][OTf]2 (2) and 1-benzyl-1,4 dihydronicotinamide (3) were synthesized by methods as described in Examples 2, 4 and 7. The NAD^+ and 1,4-NADH compounds were purchased from Sigma and used as received. The THF was distilled from Na and deoxygenate with N2 gas for 1 hour. Distilled water was purchased from Aldrich Chemical Co and deoxygenate prior to being used. A solution of THF/H2O (similar for 1:1 or 1:4 ratios) was used for all the kinetic experiments performed for compounds of 1-benzylnicotinamide type, unless otherwise specified. A stock solution of biomimic (1a) (0.018 M), 2 (6.23×10^−3 M), and sodium formate (0.25 M) were made for the kinetic experiments in THF/H2O (1:1).
A solution of 1-benzylnicotinamide triflate (1a), (4.29×10^−3 M) and sodium formate (0.0539) was made in a volumetric flask (10 mL) under N2 in a THF/H2O (1:1) mixture. The different concentration of biomimic (1a) and sodium formate used for the kinetic experiments are reported above.
A 3.0 mL aliquot of this solution was transferred to a thermostated UV-vis cell by using an air-free syringe, which was also purged with N2 gas. The sample was then brought to the desired temperature for 30-60 min in the UV-vis spectrophotometer thermostated cell holder. Then, 23 μL of a 6.23×10^−3 M stock solution of [CP*Rh(bpy)(H2O)^2+ (2), was added-by syringe under a positive N2 pressure, quickly mixed with the solution, and the absorbance increase at 354 nm was immediately recorded. The experiment was carried out for 2 hours and the formation of the product, 1-benzyl-1,4-dihydronicotinamide, (3) was followed, with the change in absorbance being recorded every 90 seconds. Some kinetic experiments were carried out until all the starting material was converted to product. The induced volume change was taken into account for the calculation of the turnover frequency (TOF).
The kinetic experiments for the β-nicotinamide-5′-ribose methyl phosphate (6) and natural NAD^+ were performed using the same general procedure described above. These kinetic experiments were carried out in H2O and the concentration of β-nicotinamide-5′-ribose methyl phosphate (6) or NAD^+, sodium formate, and [Cp*Rh(bpy)(H2O)]^2+ (2), were in the order of 1.50×10^−3, 0.0186 M, and 1.42×10^−5 M, respectively. The λmax for the β-nicotinamide-5′-ribose methyl phosphate, (6), and natural NAD^+ was 336 nm. In all the initial rate plots, time =0 s was removed from the plots of Concentration versus Time. The standard deviation of the ri were calculated from 2σ values.

Series [2] concerns the target T1, horse liver alcohol dehydrogenase (HLADH) (Equus caballus, UniProt P00327).
T1 construct: purchased Sigma
As to the kind of experiment: HLADH enzymatic chiral reduction of ketones with biomimic co-factor regeneration. It is filed as biochemical. Here is the method:
FIG. 7 presents structures of ketone substrates 12-15 used for biomimic chiral synthesis of corresponding alcohols. Conversion of the substrates 12-15 to their corresponding alcohols are expressed in % yield, and TOF in d^−1 and S-enantiomer excess (ee) are also shown for each conversion. Corresponding values obtained with NAD^+ are given in parenthesis. The S-enantiomeric excess (ee) was determined by GLC with a modified β-cyclodextrin capillary column.
[Cp*Rh(bpy)(H2O)]OTf2 (1.9 mg, 2.61×10^−3 mmol), sodium formate (17.8 mg, 261.69×10^−3 mmol), NAD^+ (8.1 mg, 11.23×10^−3 mmol) and HLADH (10 units) were placed in a 10 mL Schlenk flask, and Schlenk techniques were followed to deoxygenate the solid mixture.
Under positive argon pressure, 5 mL of potassium phosphate buffer (100 mM, pH=7.02, deoxygenated) and carbonyl substrate (83.58×10^−3 mmol, deoxygenated) were added via syringe. The reaction flask was immediately securely capped with a glass-stopper and shaken with a shaker in 30° C. water-bath. The reaction was monitored by gas chromatography (GC), equipped with a β-cyclodextrin column (Supelco, β-DEX-225), and the products were identified by comparing the retention time with the corresponding authentic chiral samples and were confirmed by GC-MS. The enantiomeric excess of the products was determined directly by their relative area in the chromatogram. The progress of the reaction was obtained by mixing the reaction aliquot with an internal standard (cyclohexanol in phosphate buffer), and then calibrating the measured relative area in the chromatogram with their corresponding response factors. The reaction was monitored for 24 hours.
The same procedure as described in section A was followed, except that NAD^+ was substituted with any one of the biomimic compounds of the invention.

A short description of series [3]: stability observations (light, air, solvent). The format is physicochemical.
Setting [4] is: [1a] 1.07 × 10^−3 M, HCO2Na 0.03266 M, 1:1 H2O/THF.
Where [5] appears, read: [1a] 1.61 × 10^−3 M, HCO2Na 0.03260 M, 1:1 H2O/THF.
[6] abbreviates: [1a] 2.68 × 10^−3 M, HCO2Na 0.03266 M, 1:1 H2O/THF.
[7] abbreviates: [1a] 2.68 × 10^−4 M, HCO2Na 0.03266 M, 1:1 H2O/THF.
Where [8] appears, read: [1a] 5.37 × 10^−4 M, HCO2Na 0.03259 M, 1:1 H2O/THF.

T1 sequence (P00327 2-375 limits assumed): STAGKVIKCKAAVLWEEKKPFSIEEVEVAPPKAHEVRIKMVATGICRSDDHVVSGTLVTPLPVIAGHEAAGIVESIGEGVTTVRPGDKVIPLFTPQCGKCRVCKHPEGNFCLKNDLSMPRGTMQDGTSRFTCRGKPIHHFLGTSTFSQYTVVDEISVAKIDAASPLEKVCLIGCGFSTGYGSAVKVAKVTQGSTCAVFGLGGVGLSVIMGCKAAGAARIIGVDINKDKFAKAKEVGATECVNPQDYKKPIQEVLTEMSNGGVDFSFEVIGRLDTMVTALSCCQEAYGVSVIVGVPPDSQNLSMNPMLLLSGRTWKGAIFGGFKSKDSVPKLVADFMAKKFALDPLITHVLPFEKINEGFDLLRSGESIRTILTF

As to `NC(=O)c1ccc[n+](Cc2ccccc2)c1` [Compound 1a, 1-Benzylnicotinamide, Triflate Salt], the TOF is 2 h⁻¹ in series [1] (294° K, 1:1 H2O/THF, substrate 4.29 × 10^−3 M); 2 h⁻¹ in series [1] (H2O/THF 1:1, 1a 4.29 × 10^−3 M); 10 h⁻¹ in series [1] (H2O/THF 4:1, 1a 1.68 × 10^−3 M); 13 h⁻¹ in series [1] (H2O/THF 4:1, 1a 4.82 × 10^−3 M). Further, the ri initial rate in series [1] (294° K, 1:1 H2O/THF, substrate 4.29 × 10^−3 M, HCO2Na 5.39 × 10^−2 M, (2) 4.33 × 10^−5 M) came out at 1.23e-08 M/s; in series [1] (H2O/THF 1:1, 1a 4.29 × 10^−3 M, HCO2Na 5.39 × 10^−2 M, (2) 4.33 × 10^−5 M), 1.23e-08 M/s; in series [1] (H2O/THF 4:1, 1a 1.68 × 10^−3 M, HCO2Na 1.79 × 10^−3 M, (2) 1.71 × 10^−5 M), 4.31e-08 M/s; in series [1] (H2O/THF 4:1, 1a 4.82 × 10^−3 M, HCO2Na 5.52 × 10^−2 M, (2) 4.83 × 10^−5 M), 1.75e-07 M/s. Besides, the “increase in initial rate of formation of the 1,4-dihydro derivative (3a), factor” value in series [1] (THF/H2O from 1:1 to 1:4, comparable concentrations) was over 6. Further, the “kcat rate constant for catalysis” value in series [1] (setting [4]) came out at 12.61 M^−2s^−1; in series [1] (setting [5]) it was 14.03 M^−2s^−1; in series [1] (setting [6]), 14.38 M^−2s^−1; in series [1] (setting [7]), 8.85 M^−2s^−1; in series [1] (setting [8]) it was 13.02 M^−2s^−1. The r1 initial rate was determined as 1.2e-08 M/s in series [1] (setting [4]); 2.01e-08 M/s in series [1] (setting [5]); 3.43e-08 M/s in series [1] (setting [6]); 2.1e-09 M/s in series [1] (setting [7]); 6.3e-09 M/s in series [1] (setting [8]). Further, the “recognition by HLADH as hydride catalyst of the chiral conversion” value in series [2] is given as “recognizes”. In addition, the “turnover frequency of chiral ketone reduction” value in series [2] (ketone (12) reduced by HLADH with co-factor regeneration, 24 hours) was about 30 day⁻¹. The stability entry in series [3] is “more stable in acqueous/organic solvent”.
